Assay results published in patent US11716992B2, “5A5B6C tricyclic spirolactone derivative, preparation method therefor and use thereof” (NANKAI UNIVERSITY, priority 2017, dated 2023).
Several values for one entry are separate records, joined by “and”; a condition that tells them apart may be missing. Equal entries are not always repeated. Where two headings read alike, the source gives them in different places.

Key:
[1] = system: Alternaria solani; experiment: Fungicidal activity, fungicide growth rate method, AS; format: cell-based; conditions: Alternaria solani, read-out: fungicidal activity (growth inhibition rate), AS
[2] = system: Botrytis cinerea; experiment: Fungicidal activity, fungicide growth rate method, BC; format: cell-based; conditions: Botrytis cinerea, read-out: fungicidal activity (growth inhibition rate), BC
[3] = system: Rhizoctonia cerealis; experiment: Fungicidal activity, fungicide growth rate method, RC; format: cell-based; conditions: for inhibition at 50 µg/mL: Ceratobasidium cereale, read-out: fungicidal activity (growth inhibition rate), RC
[4] = system: Ostrinia furnacalis; experiment: Insecticidal activity against Ostrinia furnacalis; format: in vivo; conditions: Ostrinia furnacalis; 100 μg/mL; read-out: insecticidal activity, Ostrinia furnacalis
[5] = system: Phytophthora infestans (Mont.) de Bary; experiment: microbe, parasite or virus in culture; format: cell-based; conditions: Phytophthora infestans, read-out: fungicidal activity (growth inhibition rate), PI, 50 μg/mL
[6] = system: Pellicularia sasakii; experiment: Fungicidal activity, fungicide growth rate method, PS; format: cell-based; conditions: read-out: fungicidal activity (growth inhibition rate), PS
[7] = system: Apis mellifera ligustica Spin; conditions: for Death number after 24 h / Death number after 48 h: per replicate of 10 bees
[8] = system: Mythimna separate (Walker); experiment: Insecticidal activity against Mythimna separate (Walker); format: in vivo; conditions: Mythimna, 100 μg/mL; read-out: insecticidal activity, Mythimna separate (Walker)
[9] = system: Sclerotinia sclerotiorum; experiment: Fungicidal activity, fungicide growth rate method, SS; format: cell-based; conditions: Sclerotinia sclerotiorum, 50 μg/mL
[10] = system: Helicoverpa armigera (Hübner); experiment: Insecticidal activity against Helicoverpa armigera (Hübner); format: in vivo; conditions: Helicoverpa armigera; 100 μg/mL; read-out: insecticidal activity, Helicoverpa armigera (Hübner)
[11] = system: Cercospora arachidicola; experiment: Fungicidal activity, fungicide growth rate method, CA; format: cell-based; conditions: Mycosphaerella arachidis, read-out: fungicidal activity (growth inhibition rate), CA
[12] = system: Physalospora piricola; experiment: Fungicidal activity, fungicide growth rate method, PP; format: cell-based; conditions: read-out: fungicidal activity (growth inhibition rate), PP
[13] = system: wheat Gibberella zeae; experiment: microbe, parasite or virus in culture; format: cell-based; conditions: Fusarium graminearum, read-out: fungicidal activity (growth inhibition rate), GZ, 50 μg/mL
[14] = system: Caenorhabditis elegans; experiment: Insecticidal activity against Caenorhabditis elegans; format: in vivo; conditions: Caenorhabditis elegans, 100 μg/mL; read-out: insecticidal activity, Caenorhabditis elegans

Compound	inhibition at 50 µg/mL ([1]; 50 μg/mL)	inhibition at 50 µg/mL ([2]; 50 μg/mL)	inhibition at 50 µg/mL ([3]; 50 μg/mL)	pest or weed control at 100 µg/mL [4]	inhibition at 50 µg/mL [5]	inhibition at 50 µg/mL ([6]; 50 μg/mL)	pest or weed control at 100 µg/mL [8]	pest or weed control at 100 µg/mL [10]	inhibition at 50 µg/mL ([11]; 50 μg/mL)	inhibition at 50 µg/mL ([12]; 50 μg/mL)	inhibition at 50 µg/mL [13]	pest or weed control at 100 µg/mL [14]	further results
C=CC[C@@H]1CC2=CC(=O)O[C@@]23CC=CC[C@H]13 [Zyj07-92]	> 60%	30%	> 70%	0%	15%	40%	20%	0%	–	–	–	–	Death rate after 48 h (%) ([7]; dosage 7.44 μg a.i./bee): 5.0%; Death number after 24 h ([7]; dosage 7.44 μg a.i./bee): 0; Death number after 48 h ([7]; dosage 7.44 μg a.i./bee): 0 and 1; Death rate after 48 h (%) ([7]; dosage 14.3 μg a.i./bee): 5.0%; Death number after 24 h ([7]; dosage 14.3 μg a.i./bee): 0; Death number after 48 h ([7]; dosage 14.3 μg a.i./bee): 0 and 1; inhibition at 50 µg/mL [9]: 38%
O=C1C[C@@]2(O)CC[C@H]3C[C@@H](O)[C@@H](Cl)C[C@@]32O1 [Zyj07-103]	–	27%	4%	10%	42%	0%	> 30%	15%	38%	> 50%	47%	–	–
CCOC(=O)C(C(=O)OCC)C1C[C@]2(O)C(C(=O)OCC)C(=O)O[C@@]23CC=CC[C@H]13 (stereo partly shown) [Zyj06-113-3]	–	> 50%	32%	0%	11%	11%	0%	0%	> 50%	–	43%	5%	Death rate after 48 h (%) ([7]; dosage 9.87 μg a.i./bee): 0%; Death number after 24 h ([7]; dosage 9.87 μg a.i./bee): 0; Death number after 48 h ([7]; dosage 9.87 μg a.i./bee): 0; Death rate after 48 h (%) ([7]; dosage 15.2 μg a.i./bee): 10.0%; Death number after 24 h ([7]; dosage 15.2 μg a.i./bee): 0; Death number after 48 h ([7]; dosage 15.2 μg a.i./bee): 1
C[Si](C)(C)O[C@]12CC=CC[C@@H]1C=CC2=O [Zyj06-82]	–	–	–	5%	16%	–	25%	5%	–	–	0%	8%	inhibition at 50 µg/mL [1]: 14%; inhibition at 50 µg/mL [11]: 24%; inhibition at 50 µg/mL [2]: > 50%; inhibition at 50 µg/mL [3]: 43%; inhibition at 50 µg/mL [12]: 40%; inhibition at 50 µg/mL [6]: 23%
CCOC(=O)C1C(=O)O[C@]23CC=CC[C@@H]2[C@H](OOC(C)(C)C)C[C@]13O (stereo partly shown) [Zyj06-127]	7%	45%	40%	0%	2%	4%	0%	0%	23%	5%	36%	7%	Death rate after 48 h (%) ([7]; dosage 5.40 μg a.i./bee): 0%; Death number after 24 h ([7]; dosage 5.40 μg a.i./bee): 0; Death number after 48 h ([7]; dosage 5.40 μg a.i./bee): 0; Death rate after 48 h (%) ([7]; dosage 7.70 μg a.i./bee): 0%; Death number after 24 h ([7]; dosage 7.70 μg a.i./bee): 0; Death number after 48 h ([7]; dosage 7.70 μg a.i./bee): 0
C=CC[C@@H]1C[C@]2(O)CCO[C@@]23CC=CC[C@H]13 [Zyj07-30]	0%	39%	13%	0%	15%	27%	0%	0%	14%	0%	3%	7%	Death rate after 48 h (%) ([7]; dosage 9.77 μg a.i./bee): 15.0%; Death number after 24 h ([7]; dosage 9.77 μg a.i./bee): 0; Death number after 48 h ([7]; dosage 9.77 μg a.i./bee): 1 and 2; Death rate after 48 h (%) ([7]; dosage 19.8 μg a.i./bee): 5.0%; Death number after 24 h ([7]; dosage 19.8 μg a.i./bee): 0; Death number after 48 h ([7]; dosage 19.8 μg a.i./bee): 1 and 0
C=CCC1CC2(O)CC(CC=C)C3CC=CCC32O1 (racemic) [Zyj-7-98]	–	–	–	–	–	–	–	–	–	–	–	–	Death rate after 48 h (%) ([7]; dosage 12.0 μg a.i./bee): 0%; Death number after 24 h ([7]; dosage 12.0 μg a.i./bee): 0; Death number after 48 h ([7]; dosage 12.0 μg a.i./bee): 0
C=CC[C@@H]1C[C@]2(OC(C)=O)C[C@@H](OC(C)=O)O[C@@]23C[C@H]2O[C@H]2C[C@H]13 [Zyj07-65-1]	–	–	–	5%	–	–	25%	10%	–	–	–	12%	Death rate after 48 h (%) ([7]; dosage 7.54 μg a.i./bee): 10.0%; Death number after 24 h ([7]; dosage 7.54 μg a.i./bee): 0 and 1; Death number after 48 h ([7]; dosage 7.54 μg a.i./bee): 0 and 2; Death rate after 48 h (%) ([7]; dosage 18.1 μg a.i./bee): 10.0%; Death number after 24 h ([7]; dosage 18.1 μg a.i./bee): 0 and 1; Death number after 48 h ([7]; dosage 18.1 μg a.i./bee): 0 and 2
O=C1CCC23CC=CCC12O3 (stereo not shown) [Zyj06-39]	> 60%	36%	–	0%	27%	–	10%	0%	–	–	–	> 30%	fungicidal activity (growth inhibition rate), RC ([3]; 50 μg/mL): 93%
C=CC[C@@H]1CC(=O)[C@@]2(O)CC=CC[C@H]12 [Zyj06-177]	12%	48%	61%	0%	11%	19%	0%	0%	46%	11%	0%	–	Death rate after 48 h (%) ([7]; dosage 8.17 μg a.i./bee): 0%; Death number after 24 h ([7]; dosage 8.17 μg a.i./bee): 0; Death number after 48 h ([7]; dosage 8.17 μg a.i./bee): 0; Death rate after 48 h (%) ([7]; dosage 9.46 μg a.i./bee): 0%; Death number after 24 h ([7]; dosage 9.46 μg a.i./bee): 0; Death number after 48 h ([7]; dosage 9.46 μg a.i./bee): 0
C=CC[C@@H]1C[C@@]2(OC(C)=O)C[C@@H](CC=C)[C@H]3CC=CC[C@@]32O1 [Zyj07-38]	–	–	–	5%	–	–	15%	10%	> 50%	–	–	> 30%	–
C=CC[C@@H]1C[C@]2(O)CC(O)O[C@@]23CC=CC[C@H]13 (stereo partly shown) [Zyj07-29]	0%	27%	0%	10%	25%	0%	> 30%	15%	5%	45%	7%	> 30%	Death rate after 48 h (%) ([7]; dosage 3.68 μg a.i./bee): 5.0%; Death number after 24 h ([7]; dosage 3.68 μg a.i./bee): 0; Death number after 48 h ([7]; dosage 3.68 μg a.i./bee): 0 and 1; Death rate after 48 h (%) ([7]; dosage 4.39 μg a.i./bee): 0%; Death number after 24 h ([7]; dosage 4.39 μg a.i./bee): 0; Death number after 48 h ([7]; dosage 4.39 μg a.i./bee): 0
C=CC[C@@H]1C[C@@]2(O)C[C@@H](CC=C)[C@H]3CC[C@@H](O)C[C@@]32O1 [Zyj07-69]	–	–	–	10%	–	–	25%	15%	–	–	–	10%	Death rate after 48 h (%) ([7]; dosage 9.71 μg a.i./bee): 5.0%; Death number after 24 h ([7]; dosage 9.71 μg a.i./bee): 0; Death number after 48 h ([7]; dosage 9.71 μg a.i./bee): 0 and 1
C=CC[C@@H]1C[C@]2(O)CC(=O)O[C@@]23C[C@@H](Cl)[C@H](O)C[C@H]13 [Zyj07-14]	15%	> 50%	51%	–	2%	15%	–	–	31%	31%	43%	20%	–
